Where two headings read alike, the source gives them in different places. Positions of bridges follow the written chain, without caps; N, C: chain ends. No end group written: not given here.
Key:
HK-2 cells = experiment: Smad1 phosphorylation and nuclear translocation in HK-2 cells (immunofluorescence); assay type: cell-based, human; settings: 1.3 uM and 33 uM compound
Method: Phosphorylation and nuclear translocation of Smads occurs following the activation of Type I and Type II receptors and subsequent signal transduction to intracellular Smad targets. Phosphorylation and nuclear translocation of R-Smad in HK-2, vascular endothelial, human prostate or other cells by TDFRP compounds is assayed by immuno-fluorescent microscopy methods, using anti-phospho Smad 1/5 antibodies according to the procedure of H Aoki, M Fujii, T Imamura, K Yagi, K Takehara, M Kato and K Miyazono. J. of Cell Sci. 114, 1483-1489, 2001) and by Western blot analysis (FIGS. 2, 3, 18, 2X).
For example, HK-2, human proximal tubule cells are incubated in culture medium alone or exposed TDFRP or control compounds for one hour ten minutes at 37 degree C. BMP-7 served as a positive control in the assay. Each well is rinsed with 1 mL prewarmed medium. 1 mL per well of cold Acetone/Methanol mix (1:1) is added and incubated for 2 minutes at room temperature to fix the cells. Wells are washed with 1 mL of cold PBS and blocked with 1 mL blocking buffer (3% BSA, 1% goat serum in PBS) for 7 minutes. Wells are aspirated without disturbing the cells, and 500 uL/well primary antibody is added (anti-phospho-Smad 1) at 0.056 ug/mL concentration in 3% BSA in PBS (no goat serum). Cells are incubated overnight at 4 degrees C. […]

ALK-3 = ALK-3 (Homo sapiens, UniProt P36894); experiment: Radioligand receptor binding assay (competition with 125I-labeled TDF-1)
Text: Radioligand Receptor Binding Assays for ALK-3, ALK-6 and BMPR-2:
The assays are based on competition between ^125I-labeled TDF-1 (BMP-7 or OP-1 or other BMPs) and candidate TDFRP compounds or unlabeled TDF-1 for binding to respective receptors (ALK-3, ALK-6 or BMPR-2 or other BMP receptors or co-receptors). In brief, the procedure involves immobilization of receptor on 96 well Removawell plates, blocking the wells with 3% BSA in PBS and subsequently washing the wells. Increasing concentrations of unlabeled TDF-1 or TDFRP compounds or control (unlabeled TDF-1) prepared in binding buffer are then added. Incubate plate for 1 hour at room temperature, and then add a fixed amount of ^125I-labeled TDF-1 (250,000 to 350,000 cpm) to the wells and further incubate in cold (4° C.) for 20 hours. Aspirate the contents of the wells and wash the wells four times with a wash buffer, and count the receptor bound ^125I-labeled TDF-1 in an auto gamma counter.
Using this procedure, TDFRP compound binding to select ALK receptors are assessed. Accordingly, TDFRP compounds that preferentially bind select ALK receptors can be identified. For example, TDFRP compounds that preferentially bind to ALK-3 receptor compared with binding to other ALK receptors, e.g., ALK-6 (FIGS. 1, 15).
A. Radioligand Receptor Binding Assays For ALK-3, ALK-6 and BMPR-2: […]

[1] = system: bladder cancer cells (5637); experiment: Cisplatin-induced apoptosis/necrosis in bladder cancer cells; assay type: cell-based, human; settings: cisplatin at different concentrations

ALK-3, sequence (P36894 24-532, species assumed): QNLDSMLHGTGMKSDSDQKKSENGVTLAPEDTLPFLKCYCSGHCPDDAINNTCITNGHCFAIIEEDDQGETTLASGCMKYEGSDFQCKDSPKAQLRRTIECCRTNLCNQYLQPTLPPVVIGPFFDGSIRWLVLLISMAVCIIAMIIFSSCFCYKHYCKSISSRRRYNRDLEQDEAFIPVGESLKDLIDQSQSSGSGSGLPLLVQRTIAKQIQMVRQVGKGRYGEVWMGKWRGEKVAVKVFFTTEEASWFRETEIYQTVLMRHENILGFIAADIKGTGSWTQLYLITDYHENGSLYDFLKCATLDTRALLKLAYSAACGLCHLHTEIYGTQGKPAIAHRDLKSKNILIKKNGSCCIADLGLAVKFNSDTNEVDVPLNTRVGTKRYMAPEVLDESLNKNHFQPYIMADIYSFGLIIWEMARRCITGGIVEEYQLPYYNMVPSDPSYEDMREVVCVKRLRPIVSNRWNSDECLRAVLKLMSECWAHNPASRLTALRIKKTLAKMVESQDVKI

## CYFDDSSNVLCKKYRS (disulfide 1-11 (inferred); not fully specified) [SEQ ID NO:45]
HK-2 cells
  Smad1 phosphorylation, activation and translocation in the nucleus: Smad1 phosphorylation, activation and translocation in the nucleus
ALK-3
  binding to BMP Type I ALK-3 receptor compared to ALK-6 receptor: binds preferentially
ALK-3; listed as SEQ ID NO 45
  binding to BMP Type I ALK-3 receptor compared to ALK-6 receptor: selectively binds
[1]
  apoptosis/necrosis induced by cisplatin (interference with anti-tumor activity): does not alter

— US8911953B2, “TDF-related compounds and analogs thereof, analogs and bioactive fragments” (Thrasos Innovation, Inc., priority 2005, dated 2014)
